Results reported in patent US5525627A, “Esters of acyl carnitines with long-chain aliphatic alcohols and pharmaceutical compositions containing same having antimycotic activity” (Sigma-Tau Industrie Farmaceutiche Riunite S.p.A., priority 1992, dated 1996).
“And” between values parts separate entries of the source, which are not always exact repeats. Equal values may be shown once.

How the values were obtained:
Candida albicans (562) = test: MIC for yeast and yeast-like strains; format: cell-based; details: 48 hours, 35° C., read-out: Minimal Inhibitory Concentration (MIC)
Experimental: (§1) The following strains were used (the number of strains is in brackets): Candida (13); Criptococcus (2); Saccharormyces (1); Torulopsis (1).
(§2) Yeast Nitrogen Base supplemented with 0.15% asparagine and 1.0% glucose (as carbon source) was the medium utilized in the assays.
(§3) This medium was buffered with 0.165 M 2-(N-morpholino) propane sulfonic acid (MOPS), a non-chelating buffer. […]
(§4) The inoculum was prepared from an overnight broth culture (a 48-hour culture only for Cryptococcus) in Sabouraud broth and appropriately diluted to yield a final suspension containing approximately 5.0×10^6 Colony Forming Units per ml (CFU/ml), when compared to the Mc Farland's standard control (BRAY W. E., Clinical Laboratory Methods, 5th Ed. C. V. MOSBY, St. Louis, Mo, 1957).
(§5) After further diluting (1:50), a […] volume of such fungal suspensions and an equal volume of the substance solutions were distributed into each well of a microtiter plate (96 wells, round bottom). Such a procedure eventually allowed for an "in vitro" antimycotic activity assay utilizing final fungal inocula of approximately 5.0×10^4 CFU/ml.

Candida albicans (A 54) = test: MIC for yeast and yeast-like strains; format: cell-based; details: 48 hours, 35° C., read-out: Minimal Inhibitory Concentration (MIC)
Experimental: as §1, §2, §3, §4, §5

Candida albicans (Ca 2) = test: MIC for yeast and yeast-like strains; format: cell-based; details: 48 hours, 35° C., read-out: Minimal Inhibitory Concentration (MIC)
Experimental: as §1, §2, §3, §4, §5

Candida krusei (ISS 1) = test: MIC for yeast and yeast-like strains; format: cell-based; details: Pichia kudriavzevii; 48 hours, 35° C.; read-out: Minimal Inhibitory Concentration (MIC)
Experimental: as §1, §2, §3, §4, §5

[1] = system: Candida tropicalis (5705); test: MIC for yeast and yeast-like strains; format: cell-based; details: 48 hours, 35° C., read-out: Minimal Inhibitory Concentration (MIC)
Experimental: as §1, §2, §3, §4, §5

[2] = system: Cryptococcus neoformans (4711); test: MIC for yeast and yeast-like strains; format: cell-based; details: 48 hours, 35° C., read-out: Minimal Inhibitory Concentration (MIC)
Experimental: as §1, §2, §3, §4, §5

[3] = system: Saccharomyces cerevisiae (ATCC 7752); test: MIC for yeast and yeast-like strains; format: cell-based; details: ATCC7752, 48 hours, 35° C., read-out: Minimal Inhibitory Concentration (MIC)
Experimental: as §1, §2, §3, §4, §5

[4] = system: Torulopsis candida (D.S.); test: MIC for yeast and yeast-like strains; format: cell-based; details: Suzukiozyma candida; 48 hours, 35° C.; read-out: Minimal Inhibitory Concentration (MIC)
Experimental: as §1, §2, §3, §4, §5

Candida albicans (PG) = test: MIC and MFC for yeast and yeast-like strains; format: cell-based; details: 48 hours, 35° C., read-out: Minimal Inhibitory Concentration (MIC)
Experimental: as §1, §2
(§6) This medium was buffered with 0.165 M 2-(N-morpholino) propane sulfonic acid (MOPS), a non-chelating buffer.
(§7) Antimicrob. Agents Cheroother. Aug. 34.8:1542-1545).
as §4, §5
(§8) The minimal fungicidal concentration was evaluated by spot-transferring onto Petri dishes, containing Sabouraud agar, 0.01-ml volumes of all the samples showing no visible fungal growth.

[5] = system: Candida albicans (ATCC 2091); test: MIC for yeast and yeast-like strains; format: cell-based; details: ATCC2091, 48 hours, 35° C., read-out: Minimal Inhibitory Concentration (MIC)
Experimental: as §1, §2, §6, §7, §4, §5

Candida albicans (ISS 1) = test: MIC for yeast and yeast-like strains; format: cell-based; details: 48 hours, 35° C., read-out: Minimal Inhibitory Concentration (MIC)
Experimental: as §1, §2, §6, §7, §4, §5

Candida glabrata (ISS 1) = test: MIC for yeast and yeast-like strains; format: cell-based; details: Nakaseomyces glabratus; 48 hours, 35° C.; read-out: Minimal Inhibitory Concentration (MIC)
Experimental: as §1, §2, §6, §7, §4, §5

[6] = system: Candida guilliermondii (ISS 1); test: MIC for yeast and yeast-like strains; format: cell-based; details: Meyerozyma guilliermondii; 48 hours, 35° C.; read-out: Minimal Inhibitory Concentration (MIC)
Experimental: as §1, §2, §6, §7, §4, §5

[7] = system: Candida parapsilosis (ISS 1); test: MIC for yeast and yeast-like strains; format: cell-based; details: Lodderomyces parapsilosis; 48 hours, 35° C.; read-out: Minimal Inhibitory Concentration (MIC)
Experimental: as §1, §2, §6, §7, §4, §5

[8] = system: Candida pseudotropicalis (EC 1); test: MIC for yeast and yeast-like strains; format: cell-based; details: Kluyveromyces marxianus; 48 hours, 35° C.; read-out: Minimal Inhibitory Concentration (MIC)
Experimental: as §1, §2, §6, §7, §4, §5

[9] = system: Candida tropicalis (ISS 1); test: MIC for yeast and yeast-like strains; format: cell-based; details: 48 hours, 35° C., read-out: Minimal Inhibitory Concentration (MIC)
Experimental: as §1, §2, §6, §7, §4, §5

[10] = system: Cryptococcus neoformans (ISS 1); test: MIC for yeast and yeast-like strains; format: cell-based; details: 48 hours, 35° C., read-out: Minimal Inhibitory Concentration (MIC)
Experimental: as §1, §2, §6, §7, §4, §5

yeast-like fungi = test: MIC / MFC for yeast-like fungi, all strains; format: cell-based, Candida, Cryptococcus, Saccharomyces, Torulopsis; details: versus susceptible strains; read-out: Mean MIC values
Experimental: as §1, §2, §3, §4, §5, §8

[11] = system: Aspergillus fumigatus (1/A); test: MIC for filamentous fungi; format: cell-based; details: read-out: Minimal Inhibitory Concentration (MIC)
Source text: (§9) The following strains were used (the number of strains is in brackets): Aspergillus (5); Fusarium (1); Mucor (1); Penicillium (1).
(§10) The tested substances were: ST 712, ST 722, ST 982, ST 983, ST 1000, ST 1001, ST 1032, ST 1033, ST 1034, ST 1036, ST 1037, ST 1038, ST 1050, ST 1051, ST 1052, ST 1053. The assay medium was the same as the one used in the previous study. The conidia from 72-hour cultures in Sabouraud agar, collected by washing with Sabouraud medium and Tween 80 (one drop of Tween per 10 ml of medium), were utilized as inoculum (5.0×10^4 CFU/ml).
(§11) The assay was performed using the same procedure as described for yeast-like fungi.
(§12) Also the evaluation of MIC and MFC was as reported previously.

[12] = system: Aspergillus fumigatus (2/A); test: MIC for filamentous fungi; format: cell-based; details: read-out: Minimal Inhibitory Concentration (MIC)
Source text: as §9, §10, §11, §12

[13] = system: Aspergillus fumigatus (ATCC 28212); test: MIC for filamentous fungi; format: cell-based; details: ATCC28212, read-out: Minimal Inhibitory Concentration (MIC)
Source text: as §9, §10, §11, §12

[14] = system: Aspergillus fumigatus (C/1); test: MIC for filamentous fungi; format: cell-based; details: read-out: Minimal Inhibitory Concentration (MIC)
Source text: as §9, §10, §11, §12

[15] = system: Aspergillus niger (ATCC 16404); test: MIC for filamentous fungi; format: cell-based; details: ATCC16404, read-out: Minimal Inhibitory Concentration (MIC)
Source text: as §9, §10, §11, §12

Fusarium sp. (ISS 1) = test: MIC for filamentous fungi; format: cell-based; details: read-out: Minimal Inhibitory Concentration (MIC)
Source text: as §9, §10, §11, §12

Mucor mucedo (ATCC 7941) = test: MIC for filamentous fungi; format: cell-based; details: ATCC7941, read-out: Minimal Inhibitory Concentration (MIC)
Source text: as §9, §10, §11, §12

Penicillium sp. (1302) = test: MIC for filamentous fungi; format: cell-based; details: read-out: Minimal Inhibitory Concentration (MIC)
Source text: as §9, §10, §11, §12

filamentous fungi = test: MIC / MFC for filamentous fungi, all strains; format: cell-based, Aspergillus, Fusarium, Mucor, Penicillium; details: versus susceptible strains; read-out: Mean MIC values
Source text: as §9, §10, §11, §12

[16] = system: Epidermophyton floccosum (IHEM 3495); test: MIC for dermatophytic fungi; format: cell-based; details: 35° C., 96 hours, read-out: Minimal Inhibitory Concentration (MIC)
Experimental: (§13) The following strains were used: Trichophyton menthagrophytes ATCC 9533, Trichophyton rubrum IHEM 4274, Microsporum canis IHEM 3522, Epydermophyton floccosum IHEM 3495. The tested substances were: ST 722, ST 1033, ST 1037, ST 1050, ST 1051, ST 1052,. ST 1053.
(§14) The assay was performed following the same procedure described for the yeasts, by using 7-day fungi cultures grown at 30° C. in Potato Dextrose agar, and harvested with Sabouraud broth and Tween 80 (0.5%).
(§15) After washing with Yeast Nitrogen Base, supplemented with asparagine and glucose (as carbon source), the fungal suspension was fragmented using a tissue grinder until the largest clumps or aggregates were undetectable within the grinder. This fungal suspension was then appropriately diluted in YNB to yield a concentration of 2.0×10^5 infective particles/ml (small mycelium fragments, micro-and macroaleuriospores).
(§16) Volumes of 100 μl both of the fungal suspensions and substance solutions, two-fold serially diluted in assay medium, were distributed into each well of a microtiter plate (96 wells, round bottom), which was incubated at 35° C. for 96 hours.

[17] = system: Microsporum canis (IHEM 3522); test: MIC for dermatophytic fungi; format: cell-based; details: 35° C., 96 hours, read-out: Minimal Inhibitory Concentration (MIC)
Experimental: as §13, §14, §15, §16

[18] = system: Trichophyton menthagrophites (ATCC 9533); test: MIC for dermatophytic fungi; format: cell-based; details: ATCC9533, 35° C., 96 hours, read-out: Minimal Inhibitory Concentration (MIC)
Experimental: as §13, §14, §15, §16

[19] = system: Trichophyton rubrum (IHEM 4274); test: MIC for dermatophytic fungi; format: cell-based; details: 35° C., 96 hours, read-out: Minimal Inhibitory Concentration (MIC)
Experimental: as §13, §14, §15, §16

dermatophytic fungi = test: MIC / MFC for dermatophytic fungi, all strains; format: cell-based, Trichophyton, Microsporum, Epidermophyton; details: versus susceptible strains
Experimental: as §13, §14, §15, §16

C. albicans ISS 1 = test: Experimental subcutaneous infection with Candida albicans in mice; format: in vivo, Candida albicans in mice (male CD1 outbred); details: individual samples 1-4; 50 mcg s.c. at 0, 48 and 96 hours (150 total mcg per animal)
Experimental: Male CD1 outbred mice (IFFA Credo) aged 8 weeks were used (4 animals per group).
A pathogenic strain of Candida was used, namely C. albicans ISS 1.
The infected animals were treated with ST 722 dissolved in saline, and Miconazole diluted in saline from a stock solution containing 1% Dimethyl Formamide.
From an overnight broth culture of C. albicans in Sabouraud broth, a fungal suspension was prepared in sterile saline containing 5.0×10^5 cells/mi. An inoculum of 0.5 ml of this suspension was injected subcutaneously into the abdominal wall of each animal.
The compounds were then administered by subcutaneous injection in the same area of the fungal challenge at the dose of 50 mcg (in 0.2 ml of saline) immediately after the inoculum and following 48 and 96 hours (150 total mcg per animal).
Then, 48 hours following the last treatment (6 days after the challenge with Candida), the animals were sacrificed, and the abdominal wall as well as the peritoneum were dissected out.
The excised tissues were then homogenized in 5 ml of sterile saline with a Potter-Elvehjem tissue grinder. The resulting suspensions, appropriately diluted, where plated onto Petri dishes containing a selective agar medium (BIGGY agar), which allows to easily detect the yeast Colony Forming Units (CFU/ml).
The number of colonies scored in a series of dilutions for each single sample consents to calculate the number of yeast cells present in the infected tissue sample as follows: [formula] Where Zi is the number of dilutions performed, Ni is the number of plates prepared for each dilution, and Ci is the total number of yeast cells scored in each dilution.

SMILES: CCCCCCCCCCCCOC(=O)C[C@H](C[N+](C)(C)C)OC(=O)CC(C)C [ST 1037]
- MIC (Candida albicans (562)): 1.56 mg/L
- MIC (Candida albicans (A 54)): 1.56 mg/L
- MIC (Candida albicans (Ca 2)): 1.56 mg/L
- MIC (Candida krusei (ISS 1)): 1.56 mg/L
- MIC [1]: 3.12 mg/L
- MIC [2]: 0.78 mg/L
- MIC [3]: 3.12 mg/L
- MIC [4]: 3.12 mg/L
- MIC (Candida albicans (PG)): 3.12 mg/L
- MIC [5]: 1.56 mg/L
- MIC (Candida albicans (ISS 1)): 3.12 mg/L
- MIC (Candida glabrata (ISS 1)): 3.12 mg/L
- MIC [6]: 6.25 mg/L
- MIC [7]: 3.12 mg/L
- MIC [8]: 6.25 mg/L
- MIC [9]: 3.12 mg/L
- MIC [10]: 1.56 mg/L
- MIC (yeast-like fungi): 2.8 mg/L
- MIC [11]: 6.25 mg/L
- MIC [12]: 6.25 mg/L
- MIC [13]: 6.25 mg/L
- MIC [14]: 6.25 mg/L
- MIC [15]: 6.25 mg/L
- MIC (Fusarium sp. (ISS 1)): 3.12 mg/L
- MIC (Mucor mucedo (ATCC 7941)): 12.5 mg/L
- MIC (Penicillium sp. (1302)): 6.25 mg/L
- MIC (filamentous fungi): 6.64 mg/L
- MIC [16]: 25 mg/L
- MIC [17]: 12.5 mg/L
- MIC [18]: 12.5 mg/L
- MIC [19]: 6.25 mg/L
- MIC (dermatophytic fungi): 14.1 mg/L

SMILES: Clc1ccc(COC(Cn2ccnc2)c2ccc(Cl)cc2Cl)c(Cl)c1 (stereo not drawn) [Miconazole, reference compound]
- CFU/mouse (C. albicans ISS 1): sterile and 3.60 × 10^1 CFU/mouse and 8.10 × 10^1 CFU/mouse
